Measured values published in patent US4918099A, “Drug, preparation and use thereof” (priority 1985, dated 1990).
Entries after “also recorded” stand apart in the source; their conditions may differ.

How the values were obtained:
[1] = tested on: fat pads isolated from rats; assay: Lipogenesis: esterified lipids and free fatty acids in fat pads isolated from rats; type: in vivo
Method: With (a) untreated (normal) control animals (rats), (b) diabetic rats, and (c) diabetic brazilin treated rats glucose oxidation and lipogenesis were investigated (by means of the esterified lipids and the free fatty acids). Diabetes was induced by intravenous administration of streptozotocin (40 mg/kg live weight). Brazilin was administered intraperitoneally for 15 days (100 mg/kg body weight). Within the same period the same volume of saline solution was administered to the untreated animals of the control group.
The effects of additional brazilin administration on lipogenesis were determined by means of the esterified lipids and free fatty acids formed from 1-^14 C-glucose. The measurements were carried out according to established methods.

[2] = Comparison of synthetic substances with full extract; details: synthetically prepared substance
prostacyclin production = assay: Prostacyclin production (6-keto PGF alpha); type: in vivo, rats
Method: If an inhibiting action on MDA is detectable but no significant influence on the prostacyclin production can be detected, a selective inhibiting action on thromboxane A2 may be inferred.
(§1) Rats were divided into four test groups, viz.
(§2) Group B: Normal rats (8 laboratory animals) to which an aqueous brazilin solution (comprising 110 mg of brazilin per kg body weight) was daily administered from the 20th to the 30th day
(§3) Group D: Diabetic rats (10 laboratory animals); for inducing diabetes, a dose of 70 mg of streptozotocin per kg body weight in 0.1M citrate buffer solution (pH 4.0) was administered intraperitoneally to normal rats on the 1st test day. From the 20th to the 30th day of the test aqueous brazilin solution (comprising 110 mg of brazilin per kg body weight) was daily administered orally to these diabetic rats. (Instead of an aqueous brazilin solution, the same amount of distilled water was administered to the laboratory animals of the groups A and C from the 20th to the 30th day.)
After expiration of the 30th test day, the test animals were sacrificed, and the MDA production was determined by means of thrombin stimulated platelets.

[3] = Body weight and blood sugar of the rats of the MDA test; type: in vivo; details: on 30th day
Method: as §1, §2, §3

lysosomal glycosidases = assay: Normalizing effect on lysosomal glycosidases (overall); type: in vivo; details: kidney, diabetic mice
Excerpt: (§4) Possibly, the lysosomal glycosidases active in the kidneys are involved in the micro-angiopathy accompanying diabetes mellitus. Therefore, the lysosomal glycosidase activities upon administration of brazilin and full extract were examined.
(§5) A number of mice was divided into three groups. Group I, which was used as control group, remained untreated. To the rest of the mice diabetes was induced by administering alloxan. Part of these diabetic mice remained untreated (diabetic control group II); to the rest of the diabetic mice a dose of 100 mg of brazilin per kg body weight was administered daily. After a test period of 10 and 30 days, respectively, kidney tissue was taken from the laboratory animals and the enzyme fraction was determined. In particular, incubation was carried out for 30 min at 37° C., the reaction was stopped by adding 0.05M glycine-NaOH buffer solution (pH 10.4), centrifugation was carried out at 3000 U/min for 10 min, and the amount of p-nitrophenol formed per min and per mg of protein was determined spectrophotometrically at 410 nm at the supernatant.

[4] = Increase of the peripheral insulin action in diabetic mice; type: in vivo
Method: Diabetic mice were divided into a control group and a test group. A dose of 100 mg of brazilin per kg body weight was daily administered to the animals of the test group; instead of brazilin, the same amount of saline solution was injected intraperitoneally to the animals of the control group.
After 30 test days, the body weight of the animals of the test group was higher and the blood sugar values of these animals were lower as compared to the diabetic animals of the control group.
On the 30th test day, the animals were made to fast for 5 h; thereupon, they were injected intravenously with 0.46 mU/g of NPH insulin. Then, the blood sugar values were measured at respective intervals of 5 min.

β-galactosidase = assay: Lysosomal enzyme activity in kidney tissue; type: in vivo, mice
Excerpt: as §4, §5

β-glucuronidase = assay: Lysosomal enzyme activity in kidney tissue; type: in vivo, mice
Excerpt: as §4, §5

α-mannosidase = assay: Lysosomal enzyme activity in kidney tissue; type: in vivo, mice
Excerpt: as §4, §5

[5] = tested on: lipid peroxidation in the mitochondria of rat liver; details: Arch. Pharm. Res. 7, 63-64, 1984; cited from earlier work
erythropoesis = assay: Effect on erythropoesis; parameters: species or system rats; details: rat, in vivo
Method: (§6) For administering brazilin, the laboratory animals were daily injected intraperitoneally with a dose of 100 mg of brazilin per kg body weight for 10 days. For inducing diabetes, a dose of 175 mg of alloxan per kg body weight was administered intraperitoneally.

blood viscosity = assay: Blood viscosity; type: in vivo, rats
Method: Increased blood viscosity and reduced erythrocyte deformability are typical pathological states of diabetic subjects. The effect of brazilin administration to diabetic laboratory animals (rats) on the blood viscosity and erythrocyte deformability of these animals was examined.
as §6
The blood viscosity was determined by means of heparinized blood samples relative to distilled water at 37°±0.5° C. The time interval required by 2 ml of liquid to pass between two points of a narrow glass capillary was determined.

[6] = diabetic mice, 100 mg/kg daily, 30 days

For `Oc1ccc2c(c1)OC[C@]1(O)Cc3cc(O)c(O)cc3[C@H]21` [brazilin], the “effect on the production of free fatty acids” value ([1]; basal and insulin stimulated) was “In none of the two cases additional administration of brazilin has any significant effect”, the “restoration of initial production of esterified lipids, basal” value ([1]; diabetic rats + brazilin) was 24.7% and the “restoration of initial production of esterified lipids, insulin stimulated” value ([1]; diabetic rats + brazilin, insulin 25 ng/ml) was 19.8%. For the same compound, the “Glucose→FFA (free fatty acids), basal” value ([1]; diabetic rats + brazilin, n=6, not significant vs diabetic control, diabetic 2.60, normal 3.18) was 1.83 ± 0.43 nmol/100 mg tissue/120 min, the “Glucose→E.L. (esterified lipids), basal” value ([1]; diabetic rats + brazilin, n=10, P < 0.01 vs. diabetic control, diabetic 78.8, normal 220.8) was 113.9 ± 9.5 nmol/100 mg tissue/120 min and the “Glucose→FFA (free fatty acids), insulin stimulated” value ([1]; insulin 25 ng/ml, n=6, not significant vs diabetic control, diabetic 3.73, normal 8.42) was 3.39 ± 0.76 nmol/100 mg tissue/120 min. For the same compound, the “Glucose→E.L. (esterified lipids), insulin stimulated” value ([1]; insulin 25 ng/ml, n=9, P < 0.1 vs diabetic control, diabetic 276.5, normal 528.0) was 326.2 ± 18.4 nmol/100 mg tissue/120 min, the “effects compared with administration of major amounts of full extract” value [2] was “substantially has the same effects” and the “6-Keto PG F α” value (prostacyclin production; diabetic rats + brazilin, diabetic control 0.19) was 0.18 ± 0.03 ng/mg. The “6-Keto PG F α” value (prostacyclin production; normal rats + brazilin, normal control 0.18) was 0.17 ± 0.02 ng/mg, the “influence on the prostacyclin production” value (prostacyclin production; rats) was “no influence on the prostacyclin production could be observed” and the Blood sugar ([3]; Group B (normal + brazilin), normal control 79) was 77 ± 20.3 mg/100 ml. It also gave a Body weight ([3]; Group B (normal + brazilin), normal control 222) of 226 ± 24.4 g, a Blood sugar ([3]; Group D (diabetic + brazilin), 266 on 20th day, diabetic control 337) of 165 ± 42.7 mg/100 ml and a Body weight ([3]; Group D (diabetic + brazilin), diabetic control 185) of 206 ± 9.61 g. For the same compound, the “effect on the lysosomal glycosidase activity” value (lysosomal glycosidases) was “normalizing effect”, the “blood sugar after i.v. NPH insulin” value ([4]; brazilin treated diabetic mice, 0.46 mU/g NPH insulin, day 30, 5 h fasted (FIG. 5)) was “marked decrease of the blood sugar values” and the “blood sugar values vs. diabetic control” value [4, 6] was “lower”. For the same compound, the “body weight vs. diabetic control” value [4, 6] was “higher”, the β-galactosidase activity (β-galactosidase; after 10 days, p < 0.05 vs. Group II (14.74), Group I 11.53) was 12.33 ± 1.95 and the β-galactosidase activity (β-galactosidase; after 30 days, p < 0.001 vs. Group II (7.39), Group I 8.90) was 10.28 ± 0.55. For the same compound, the β-glucuronidase activity (β-glucuronidase; after 10 days, p < 0.025 vs. Group II (3.33), Group I 4.82) was 4.02 ± 0.65, the β-glucuronidase activity (β-glucuronidase; after 30 days, p < 0.05 vs. Group II (2.31), Group I 2.26) was 2.49 ± 0.25 and the α-mannosidase activity (α-mannosidase; after 10 days, p < 0.001 vs. Group II (8.60), Group I 8.72) was 12.49 ± 1.34. The α-mannosidase activity (α-mannosidase; after 30 days, p < 0.001 vs. Group II (5.69), Group I 6.57) was 5.99 ± 0.54, the “effect on lipid peroxidation in mitochondria of rat liver” value [5] was “effect on the lipid peroxidation” and the effect on erythropoesis (erythropoesis) was “no effect on erythropoesis”. For the same compound, the Viscosity (blood viscosity; alloxan diabetic rats + brazilin, P < 0.05 vs. diabetic control (1.62)) was 1.52 ± 0.07 cP, the “effect on blood viscosity of diabetic animals” value (blood viscosity; diabetic rats vs. control group) was “significant decrease of the blood viscosity; also recorded: significant decrease (P<0.05) of blood viscosity” and the “effect on blood viscosity of normal animals” value (blood viscosity; normal + brazilin vs. normal) was “No statistical differences”. It also gave a Viscosity (blood viscosity; normal rats + brazilin 100 mg/kg i.p. 10 days, 37° C., normal 1.45) of 1.40 ± 0.06 cP.
